Legend:
[1] = tested on: IL-6 triggered serum amyloid-A (SAA) protein release; experiment: Serum Amyloid A (SAA) mouse model; type: in vivo; conditions: 25 mg/kg s.c. 9 h before hIL-6 5 μg/kg i.p.; Balb/c mice
Protocol: The IL-6 targeting Z variant Z06814 (SEQ ID NO:1512) and a control Z variant Z04726 (SEQ ID NO:1535) binding an irrelevant target, were cloned and produced in fusion with the ABD variant PP013 (SEQ ID NO:1554) as described in Example 2. Four groups of Balb/c mice (n=8) were injected subcutaneously (s.c.) with various doses (0, 0.025, 2.5 or 25 mg/kg body weight) of Z06814-ABD 9 h prior to intraperitoneal (i.p.) administration of hIL-6 at 5 μg/kg (R&D Systems). A fifth group of mice (n=8) received 25 mg/kg of Z04726-ABD. Two additional control groups of mice received PBS (n=4) and 25 mg/kg of Z06814-ABD (n=8), respectively, but no subsequent IL-6 injection. After 20 h, the blood was taken by cardiac puncture and serum was collected.
Serum was assessed for the content of murine SAA by ELISA (Tridelta) according to the manufacturer's instructions. In brief, diluted serum samples were added to SAA-precoated plates together with anti-SAA-HRP. The plates were incubated for 1 h and then washed four times. TMB substrate was added for 20 min and the reaction was stopped with stop solution. The absorbance was measured at 450 nm using a microplate reader (Victor^3, Perkin Elmer).

[2] = tested on: IL-6 trans-signaling dependent secretion of MCP-1 in HUVECs; experiment: HUVEC trans-signaling assay, MCP-1 production; type: cell-based, human; conditions: fusions with ABD variant PP013, in the presence of HSA
Protocol: To address the trans-signaling pathway, a second assay was used. Herein, human umbilical vein endothelial cells (HUVECs) were stimulated with hIL-6 and soluble hIL-6Rα and the readout was the production of monocyte chemoattractant protein-1 (MCP-1). HUVECs (Lonza) were grown in EGM-2 bullet kit media (Lonza) and passaged in culture no more than eight times. Cells were grown until 75% confluence before use. Cells were detached using trypsin/EDTA (Lonza), resuspended and washed once in fresh medium. Next, cells were counted and dispensed into 96 well flat bottom plates at a density of 2×10^4 cells per well. Cells were cultured overnight at 37° C. in a humidified 5% CO2 atmosphere. […] The pre-mixed solutions with the test molecules and hIL-6/hIL-6Rα were then transferred to wells containing HUVECs, which were incubated for 24 h at 37° C. in a humidified 5% CO2 atmosphere. Cell free supernatant was collected after the incubation period and human MCP-1 levels were determined by sandwich ELISA using the MCP-1 Duoset ELISA development system (R&D Systems).
Half area 96-well ELISA plates were coated with anti-MCP-1 capture antibody (R&D Systems) at a concentration of 1 μg/ml. Plates were incubated overnight at 4° C., washed twice in tap water and blocked for 1 h in PBSC. […] The absorbance was measured at 450 nm using a microplate reader (Victor^3, Perkin Elmer).

| Substance | SAA protein levels in serum [1] [µg/mL] | inhibition of IL-6 mediated trans-signaling in HUVECs [2] |
| --- | --- | --- |
| Z04726-ABD: control Z variant Z04726 (SEQ ID NO:1553) binding an irrelevant target, in fusion with ABD variant PP013 [reference compound] | 500 to 600 |  |
| Z03638: control Z variant binding an irrelevant target, tested in fusion with ABD variant PP013 [reference compound] |  | did not |
